In patent US20230357162A1, “COMPOUNDS, COMPOSITIONS AND METHODS” (Denali Therapeutics Inc., priority 2020, published 2023):

System: IL-1β secretion, THP-1 cells
Assay: IL-1β secretion assay in PMA-differentiated THP-1 cells stimulated with LPS and nigericin (ELISA readout)
Format: cell-based
Settings: Homo sapiens, THP-1, inhibition of IL-1β secretion, 25 ng/mL LPS then nigericin
Summary of the method: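 THP-1 cells differentiated with 5 ng/mL PMA for 40 h, primed in serum-free medium with 25 ng/mL LPS for 2 h, then compound (0.5% DMSO) for 1 h before nigericin for 2 h at 37°C. Supernatant IL-1β quantified by ELISA; normalized to high (LPS + 5 µM nigericin) and low (LPS only) controls.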

| Compound | IC50 (class column of Table 3) [nM] | IC50 (numeric column of Table 3) [nM] |
| --- | --- | --- |
| O=C(Cn1nc(C(F)(F)F)c2ccc(Br)cc2c1=O)Nc1ncncc1F [Example 132, 2-[7-bromo-1-oxo-4-(trifluoromethyl)phthalazin-2-yl]-N-(5-fluoropyrimidin-4-yl)acetamide] | > 15000 | > 50000 |
| O=C(Cn1nc(C(F)F)c2cc(Br)ccc2c1=O)Nc1ncc(Cl)cn1 [Example 135] | < 10000 | 424 |
| N#Cc1cnc(NC(=O)Cn2nc(C(F)F)c3cc(Br)ccc3c2=O)nc1 [Example 136] | < 10000 | 181 |
| O=C(Cn1nc(OCF)c2cc(Br)ccc2c1=O)Nc1ncc(F)cn1 [Example 137, 2-[6-bromo-1-oxo-4-(fluoromethoxy)phthalazin-2-yl]-N-(5-fluoropyrimidin-2-yl)acetamide] | < 10000 | 186 |
| O=C(Cn1nc(OCC(F)(F)F)c2cc(Br)ccc2c1=O)Nc1ncc(F)cn1 [Example 138, 2-[6-bromo-1-oxo-4-(2,2,2-trifluoroethoxy)phthalazin-2-yl]-N-(5-fluoropyrimidin-2-yl)acetamide] | 10000 to 15000 | 11100 |
| O=C(Cn1nc(C(F)CF)c2cc(Br)ccc2c1=O)Nc1ncc(F)cn1 (stereo not drawn) [Example 139, 2-[6-bromo-4-(1,2-difluoroethyl)-1-oxophthalazin-2-yl]-N-(5-fluoropyrimidin-2-yl)acetamide] | < 10000 | 318 |
| COc1nn(CC(=O)Nc2ncc(F)cn2)c(=O)c2ccc(Br)c(F)c12 [Example 140, 2-(6-bromo-5-fluoro-4-methoxy-1-oxophthalazin-2-yl)-N-(5-fluoropyrimidin-2-yl)acetamide] | < 10000 | 87 |
| COc1c(Br)ccc2c(=O)n(CC(=O)Nc3ncc(F)cn3)nc(Cl)c12 [Example 141, 2-(6-bromo-4-chloro-5-methoxy-1-oxophthalazin-2-yl)-N-(5-fluoropyrimidin-2-yl)acetamide] | < 10000 | 1200 |
| O=C(Cn1nc(CF)c2cc(Br)ccc2c1=O)Nc1ncc(F)cn1 [Example 142, 2-[6-bromo-4-(fluoromethyl)-1-oxophthalazin-2-yl]-N-(5-fluoropyrimidin-2-yl)acetamide] | < 10000 | 91 |
| O=C(Cn1nc(CF)c2ccc(Br)cc2c1=O)Nc1ncc(F)cn1 [Example 143, 2-[7-bromo-4-(fluoromethyl)-1-oxophthalazin-2-yl]-N-(5-fluoropyrimidin-2-yl)acetamide] | < 10000 | 2470 |
| CC(F)c1nn(CC(=O)Nc2ncc(F)cn2)c(=O)c2ccc(Br)c(F)c12 (stereo not drawn) [Example 144, 2-[6-bromo-5-fluoro-4-(1-fluoroethyl)-1-oxophthalazin-2-yl]-N-(5-fluoropyrimidin-2-yl)acetamide] | < 10000 | 191 |
| Cc1nn(CC(=O)Nc2ncc(F)cn2)c(=O)c2ccc(Br)c(F)c12 [Example 145] | < 10000 | 174 |
| COc1nn(CC(=O)Nc2ncc(F)cn2)c(=O)c2ccc(C(F)(F)F)cc12 [Example 146, N-(5-fluoropyrimidin-2-yl)-2-[4-methoxy-1-oxo-6-(trifluoromethyl)phthalazin-2-yl]acetamide] | < 10000 | 461 |
| O=C(Cn1nc(CF)c2cc(C(F)(F)F)ccc2c1=O)Nc1ncc(F)cn1 [Example 147, 2-[4-(fluoromethyl)-1-oxo-6-(trifluoromethyl)phthalazin-2-yl]-N-(5-fluoropyrimidin-2-yl)acetamide] | < 10000 | 279 |
| O=C(Cn1nc(CF)c2c(F)c(Br)ccc2c1=O)Nc1ncc(F)cn1 [Example 148, 2-[6-bromo-5-fluoro-4-(fluoromethyl)-1-oxophthalazin-2-yl]-N-(5-fluoropyrimidin-2-yl)acetamide] | < 10000 | 97 |
| CSc1nn(CC(=O)Nc2ncc(F)cn2)c(=O)c2ccc(Br)cc12 [Example 149, 2-(6-bromo-4-methylsulfanyl-1-oxophthalazin-2-yl)-N-(5-fluoropyrimidin-2-yl)acetamide] | < 10000 | 782 |
| O=C(Cn1nc(OC2CC2)c2cc(Br)ccc2c1=O)Nc1ncc(F)cn1 [Example 150, 2-(6-bromo-4-cyclopropyloxy-1-oxophthalazin-2-yl)-N-(5-fluoropyrimidin-2-yl)acetamide] | < 10000 | 127 |
| N#Cc1cnc(NC(=O)Cn2nc(OC3CC3)c3cc(Br)ccc3c2=O)c(F)c1 [Example 151] | < 10000 | 491 |
| Cc1cnc(NC(=O)Cn2nc(OC3CC3)c3cc(Br)ccc3c2=O)nc1 [Example 152] | < 10000 | 173 |

Now from value to compound:

| IC50 (class column of Table 3) [nM] | IC50 (numeric column of Table 3) [nM] | Compound |
| --- | --- | --- |
| < 10000 | 2130 | CC(C)c1nn(CC(=O)Nc2ccnn2C2CCC2)c(=O)c2ccc(Br)cc12 [Example 123, 2-(6-bromo-1-oxo-4-propan-2-ylphthalazin-2-yl)-N-(2-cyclobutylpyrazol-3-yl)acetamide] |
| < 10000 | 1030 | Cc1cnc(NC(=O)Cn2nc(C(C)C)c3cc(Br)ccc3c2=O)c(F)c1 [Example 124, 2-(6-bromo-1-oxo-4-propan-2-ylphthalazin-2-yl)-N-(3-fluoro-5-methylpyridin-2-yl)acetamide] |
| < 10000 | 3060 | CC(C)c1nn(CC(=O)NC2CCCOC2)c(=O)c2ccc(Br)cc12 (stereo not drawn) [Example 125, 2-(6-bromo-1-oxo-4-propan-2-ylphthalazin-2-yl)-N-(oxan-3-yl)acetamide] |
| < 10000 | 1780 | CC(C)c1nn(CC(=O)NC2CCC2)c(=O)c2ccc(Br)cc12 [Example 126, 2-(6-bromo-1-oxo-4-propan-2-ylphthalazin-2-yl)-N-cyclobutylacetamide] |
| < 10000 | 1050 | CC(C)c1nn(CC(=O)NCC2CCC2)c(=O)c2ccc(Br)cc12 [Example 127, 2-(6-bromo-1-oxo-4-propan-2-ylphthalazin-2-yl)-N-(cyclobutylmethyl)acetamide] |
| < 10000 | 5260 | CC(C)c1nn(CC(=O)NCc2ccnn2C)c(=O)c2ccc(Br)cc12 [Example 128, 2-(6-bromo-1-oxo-4-propan-2-ylphthalazin-2-yl)-N-[(2-methylpyrazol-3-yl)methyl]acetamide] |
| < 10000 | 20100 | CC(C)c1nn(CC(=O)NCc2ccccc2)c(=O)c2ccc(Br)cc12 [Example 129, N-benzyl-2-(6-bromo-1-oxo-4-propan-2-ylphthalazin-2-yl)acetamide] |
| < 10000 | 2920 | CC(C)c1nn(CC(=O)NCC2CCCO2)c(=O)c2ccc(Br)cc12 (stereo not drawn) [Example 130, 2-(6-bromo-1-oxo-4-propan-2-ylphthalazin-2-yl)-N-(oxolan-2-ylmethyl)acetamide] |
| < 10000 | 1270 | O=C(Cn1nc(C(F)(F)F)c2cc(Br)ccc2c1=O)Nc1ncncc1F [Example 131, 2-[6-bromo-1-oxo-4-(trifluoromethyl)phthalazin-2-yl]-N-(5-fluoropyrimidin-4-yl)acetamide] |
| < 10000 | 109 | N#Cc1cnc(NC(=O)Cn2nc(C(F)F)c3c(F)c(Br)ccc3c2=O)nc1 [Example 133] |
| < 10000 | 1210 | O=C(Cn1nc(C(F)F)c2cc(Br)ccc2c1=O)Nc1ncc(Cl)cc1F [Example 134] |
